Laboratory results from PMC12376128, “In vitro and In Vivo Drug Metabolism Analysis of BPI-460372 - A Covalent TEAD1/3/4 Inhibitor” (Current Drug Metabolism, 2025).

Columns and labels:
monkey hepatocytes = test: Metabolism and metabolite formation in hepatocytes; assay type: in vitro ADME, cynomolgus monkey; settings: cynomolgus monkey hepatocytes, 10 µM BPI-460372, 4 h incubation
Source text: All the samples were duplicates.

TEAD proteins = tested on: TEAD proteins; design: method as in doi:10.1158/1538-7445.AM2023-501; settings: cited from earlier work
TEAD palmitoylation = tested on: TEAD palmitoylation; design: method as in doi:10.1158/1538-7445.AM2023-501; settings: cited from earlier work
CYP1A2 = biological target: T1, CYP1A2 (Homo sapiens, UniProt P05177); test: Metabolic stability in HLMs with or without specific CYP inhibitor (α-naphthoflavone); assay type: in vitro ADME; design: HLMs (1 mg protein·mL^-1); tissue BioIVT; host or cells: pooled human liver microsomes; settings: HLMs 1 mg protein/mL, substrate 1 μM, α-naphthoflavone 2 µM
T1 sequence (P05177 1-516): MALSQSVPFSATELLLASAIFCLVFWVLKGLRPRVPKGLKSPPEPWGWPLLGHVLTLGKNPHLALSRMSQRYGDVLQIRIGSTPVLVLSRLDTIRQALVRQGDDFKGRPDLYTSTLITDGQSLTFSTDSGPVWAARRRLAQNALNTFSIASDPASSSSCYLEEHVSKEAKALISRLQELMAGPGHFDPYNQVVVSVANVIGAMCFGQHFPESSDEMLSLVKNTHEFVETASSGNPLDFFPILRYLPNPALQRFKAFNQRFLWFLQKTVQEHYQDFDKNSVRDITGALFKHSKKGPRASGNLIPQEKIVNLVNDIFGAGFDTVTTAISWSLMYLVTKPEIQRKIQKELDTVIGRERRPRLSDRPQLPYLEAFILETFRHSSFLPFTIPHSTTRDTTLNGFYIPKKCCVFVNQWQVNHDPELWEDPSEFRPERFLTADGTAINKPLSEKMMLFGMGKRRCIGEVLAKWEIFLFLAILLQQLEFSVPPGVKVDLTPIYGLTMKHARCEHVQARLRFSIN
Protocol: Before starting the experiments, the HLMs were thawed gently on ice. Metabolic stability incubations were performed at 37 °C. The incubations contained 100 mM phosphate buffer saline (PBS, pH 7.4), HLMs (1 mg protein·mL^-1), dimethyl sulfoxide (DMSO, blank control) or a selective CYP inhibitor, and BPI-460372 or positive control substrates (final incubation concentration, 1 μM). The incubation process started with the addition of NADPH (1 mM final concentration) after a 5-minute preincubation period. The chemical inhibitors were as follows: a-naphthoflavone (2 µM) for CYP1A2, ticlopidine (20 µM) for 2B6, quercetin (20 µM) for CYP2C8, sulfaphenazole (20 µM) for CYP2C9, ticlopidine (200 µM) for CYP2C19, quinidine (20 µM) for CYP2D6, and ketoconazole (20 µM) for CYP3A [9]. Aliquots were maintained in acetonitrile containing internal standard (IS) at various time points, such as 0 min, 5 min, 10 min, 20 min, 30 min, and 60 min. All incubations were performed in triplicate, and the concentration in the supernatant was determined by liquid chromatography-tandem mass spectrometry (LC-MS/MS).
The elimination rate constant k (min^-1) was obtained by linear regression from the natural logarithm of the […] of the parent drug and the incubation time. The inhibition rate was calculated using equation 1 [10]: […]

C=C(F)C(=O)N1CC(n2c(=O)n(-c3ccc(C(F)(F)F)cc3)c3nccnc32)C1 [BPI-460372]
UV (314 nm) Peak Areas Relative Abundance (monkey hepatocytes): 63.98%
Covalent binding to TEAD1/3/4 (TEAD proteins; 2-fluoro acrylamide warhead): covalently bind to the Cys-368 residue
Off-target covalent binding (TEAD proteins): without significant off-target covalent binding affinity
Inhibition of the palmitoylation of TEADs (TEAD palmitoylation): inhibit the palmitoylation
Inhibition Rate (CYP1A2): 32.7%
